Earlier results in patent publication US6673157B1, “Methods for stripping paint with DMSO containing compositions” (Gaylord Chemical Corporation, priority 2000, dated 2004).

Tests used:
[1] = pure substance
[2] = DMSO concentrations as high as 40%; living human skin
[3] = applied to intact human skin in vivo; abrupt fall-off below 70%

Compound | Rate of penetration of animal skin [1] | LD50 oral rat toxicity | Effect of DMSO on rate of skin penetration of octyl acetate [2] | DMSO concentration at which it penetrates intact skin to the blood vessels [3]
C[S+](C)[O-] [DMSO, dimethyl sulfoxide] | approximately 176±42 g/m^2/hr | approximately 17,400 milligrams per kilogram | did not increase the rate of skin penetration of octyl acetate | ≥ 70%
CC(=O)OC(C)(C)C [t-butyl acetate] |  | about 4500 mg per kilogram |  | 
O [water, reference compound] | approximately 14.8±0.1 g/m^2/hr |  |  | 
